Patent US10913710B2, “Benzene disulfonamide for the treatment of cancer” (priority 2017, dated 2021)

Target: PDEδ (Homo sapiens (Human), UniProt O43924)
Experiment: Fluorescence polarization competition binding assay: displacement titration of labeled Atorvastatin probe for KD
Conditions: fluorescence polarization assay; activity classes; read-out: KD
Description: Example D.2: Displacement Titrations of Labeled Atorvastatin-Probe for the Determination of KD Values
Displacement Titrations of Labeled Atorvastatin-Probe for the Determination of KD Values:
The purification was followed by size exclusion gel filtration on a Superdex 75 S26/60 column using buffer A (25 mM Tris-HCl, pH 7.5, 150 mM NaCl and 3 mM DTE).

SMILES	Kd [nM]
O=S(=O)(NCc1ccccc1)c1ccc(S(=O)(=O)N(Cc2ccco2)Cc2ccccc2F)cc1 [Compound 66, N1-benzyl-N4-(2-fluorobenzyl)-N4-(furan-2-ylmethyl)benzene-1,4-disulfonamide]	> 1000
COc1cccc(CN(CC2CCCO2)S(=O)(=O)c2ccc(S(=O)(=O)N3CCCC3)cc2)c1 (stereo not drawn) [Compound 67, N-(3-methoxybenzyl)-4-(pyrrolidin-1-ylsulfonyl)-N-((tetrahydrofuran-2-yl)methyl)benzenesulfonamide]	100 to 1000
CCN(CC)S(=O)(=O)c1ccc(S(=O)(=O)N(Cc2ccc(OC)c(OC)c2)C2CCCCC2C)cc1 (stereo not drawn) [Compound 68, N1-(3,4-dimethoxybenzyl)-N4,N4-diethyl-N1-(2-methylcyclohexyl)benzene-1,4-disulfonamide]	1 to 30
CCOc1ccc(CN(C2CC2)S(=O)(=O)c2ccc(S(=O)(=O)N(C)C)cc2)cc1 [Compound 69, N1-cyclopropyl-N1-(4-ethoxybenzyl)-N4,N4-dimethylbenzene-1,4-disulfonamide]	100 to 1000
COc1ccc(CN(C2CCCCC2C)S(=O)(=O)c2ccc(S(=O)(=O)NCc3ccccc3)cc2)cc1OC (stereo not drawn) [Compound 70, N1-benzyl-N4-(3,4-dimethoxybenzyl)-N4-(2-methylcyclohexyl)benzene-1,4-disulfonamide]	100 to 1000
CN(C)S(=O)(=O)c1ccc(S(=O)(=O)N(Cc2ccc(Cl)cc2)Cc2ccco2)cc1 [Compound 71, N1-(4-chlorobenzyl)-N1-(furan-2-ylmethyl)-N4,N4-dimethylbenzene-1,4-disulfonamide]	> 1000
COc1ccc(CN(Cc2ccc(C)cc2)S(=O)(=O)c2ccc(S(=O)(=O)N(C)Cc3ccccc3)cc2)cc1 [Compound 73, N1-benzyl-N4-(4-methoxybenzyl)-N1-methyl-N4-(4-methylbenzyl)benzene-1,4-disulfonamide]	100 to 1000
COc1ccc(CN(Cc2ccc3c(c2)OCO3)S(=O)(=O)c2ccc(S(=O)(=O)NC3CCCCC3)cc2)cc1OC [Compound 75, N1-(benzo[d][1,3]dioxol-5-ylmethyl)-N4-cyclohexyl-N1-(3,4-dimethoxybenzyl)benzene-1,4-disulfonamide]	> 1000
CCOc1ccccc1CN(Cc1ccco1)S(=O)(=O)c1ccc(S(=O)(=O)NC2CCCCC2)cc1 [Compound 76, N1-cyclohexyl-N4-(2-ethoxybenzyl)-N4-(furan-2-ylmethyl)benzene-1,4-disulfonamide]	100 to 1000
O=S(=O)(NCC1CCCO1)c1ccc(S(=O)(=O)N(Cc2ccccc2)Cc2ccccc2F)cc1 (stereo not drawn) [Compound 77, N1-benzyl-N1-(2-fluorobenzyl)-N4-((tetrahydrofuran-2-yl)methyl)benzene-1,4-disulfonamide]	100 to 1000
O=S(=O)(c1ccc(S(=O)(=O)N(Cc2ccc(F)cc2)Cc2ccc(F)cc2)cc1)N1CCCCC1 [Compound 78, N,N-bis(4-fluorobenzyl)-4-(piperidin-1-ylsulfonyl)benzenesulfonamide]	100 to 1000
O=S(=O)(c1ccc(S(=O)(=O)N(Cc2ccc(F)cc2)CC2CCCO2)cc1)N1CCCCC1 (stereo not drawn) [Compound 80, N-(4-fluorobenzyl)-4-(piperidin-1-ylsulfonyl)-N-((tetrahydrofuran-2-yl)methyl)benzenesulfonamide]	30 to 100
COc1ccc(CN(Cc2ccccc2Cl)S(=O)(=O)c2ccc(S(=O)(=O)N3CCCCC3)cc2)cc1 [Compound 81, N-(2-chlorobenzyl)-N-(4-methoxybenzyl)-4-(piperidin-1-ylsulfonyl)benzenesulfonamide]	30 to 100
O=S(=O)(c1ccc(S(=O)(=O)N(Cc2ccc(Cl)cc2)CC2CCCO2)cc1)N1CCCCC1 (stereo not drawn) [Compound 82, N-(4-chlorobenzyl)-4-(piperidin-1-ylsulfonyl)-N-((tetrahydrofuran-2-yl)methyl)benzenesulfonamide]	100 to 1000
COc1cccc(CN(Cc2ccco2)S(=O)(=O)c2ccc(S(=O)(=O)NCC3CCCO3)cc2)c1 (stereo not drawn) [Compound 84, N1-(furan-2-ylmethyl)-N1-(3-methoxybenzyl)-N4-((tetrahydrofuran-2-yl)methyl)benzene-1,4-disulfonamide]	1 to 30
CCOc1ccc(CN(Cc2ccc(OC)cc2)S(=O)(=O)c2ccc(S(=O)(=O)N3CCCCC3)cc2)cc1 [Compound 85, N-(4-ethoxybenzyl)-N-(4-methoxybenzyl)-4-(piperidin-1-ylsulfonyl)benzenesulfonamide]	100 to 1000
CCN(CC)S(=O)(=O)c1ccc(S(=O)(=O)N(Cc2ccc(F)cc2)Cc2cccc(OC)c2OC)cc1 [Compound 87, N1-(2,3-dimethoxybenzyl)-N4,N4-diethyl-N1-(4-fluorobenzyl)benzene-1,4-disulfonamide]	> 1000

More lines, now with the values ahead:

Kd [nM]	SMILES
100 to 1000	O=S(=O)(NCC1CCCO1)c1ccc(S(=O)(=O)N(Cc2ccccc2)Cc2ccc(Cl)cc2)cc1 (stereo not drawn) [Compound 62, N1-benzyl-N1-(4-chlorobenzyl)-N4-((tetrahydrofuran-2-yl)methyl)benzene-1,4-disulfonamide]
1 to 30	CC(C)c1ccc(CN(CC2CCCO2)S(=O)(=O)c2ccc(S(=O)(=O)NCc3ccccc3)cc2)cc1 (stereo not drawn) [Compound 63, N1-benzyl-N4-(4-isopropylbenzyl)-N4-((tetrahydrofuran-2-yl)methyl)benzene-1,4-disulfonamide]
100 to 1000	COc1cc(CN(C2CCCCC2)S(=O)(=O)c2ccc(S(=O)(=O)N(C)C3CCCCC3)cc2)cc(OC)c1OC [Compound 64, N1,N4-dicyclohexyl-N1-methyl-N4-(3,4,5-trimethoxybenzyl)benzene-1,4-disulfonamide]
1 to 30	O=S(=O)(NC1CCCCC1)c1ccc(S(=O)(=O)N(Cc2ccccc2)CC2CCCO2)cc1 (stereo not drawn) [Compound 65, N1-benzyl-N4-cyclohexyl-N1-((tetrahydrofuran-2-yl)methyl)benzene-1,4-disulfonamide]
100 to 1000	CC1CCCN(S(=O)(=O)c2ccc(S(=O)(=O)N(Cc3ccc4c(c3)OCO4)Cc3ccccc3F)cc2)C1 (stereo not drawn) [Compound 72, N-(benzo[d][1,3]dioxol-5-ylmethyl)-N-(2-fluorobenzyl)-4-((3-methylpiperidin-1-yl)sulfonyl)benzenesulfonamide]
> 1000	CN(Cc1ccccc1)S(=O)(=O)c1ccc(S(=O)(=O)N(Cc2ccc(Cl)cc2)Cc2ccco2)cc1 [Compound 74, N1-benzyl-N4-(4-chlorobenzyl)-N4-(furan-2-ylmethyl)-N1-methylbenzene-1,4-disulfonamide]
> 1000	CCOc1ccc(CN(CC2CCCO2)S(=O)(=O)c2ccc(S(=O)(=O)N3CCCCC3)cc2)cc1 (stereo not drawn) [Compound 79, N-(4-ethoxybenzyl)-4-(piperidin-1-ylsulfonyl)-N-((tetrahydrofuran-2-yl)methyl)benzenesulfonamide]
30 to 100	CN(C1CCCCC1)S(=O)(=O)c1ccc(S(=O)(=O)N(Cc2ccc(F)cc2)C2CC2)cc1 [Compound 83, N1-cyclohexyl-N4-cyclopropyl-N4-(4-fluorobenzyl)-N1-methylbenzene-1,4-disulfonamide]
> 1000	O=S(=O)(c1ccc(S(=O)(=O)N(Cc2ccccc2)Cc2ccc(F)cc2)cc1)N1CCCC1 [Compound 86, N-benzyl-N-(4-fluorobenzyl)-4-(pyrrolidin-1-ylsulfonyl)benzenesulfonamide]
100 to 1000	O=S(=O)(NCC1CCCO1)c1ccc(S(=O)(=O)N(Cc2ccc(F)cc2)C2CCCCC2)cc1 (stereo not drawn) [Compound 88, N1-cyclohexyl-N1-(4-fluorobenzyl)-N4-((tetrahydrofuran-2-yl)methyl)benzene-1,4-disulfonamide]
